In ChEMBL document CHEMBL1146143, “New ligand-based approach for the discovery of antitrypanosomal compounds” (2006):

Columns and labels:
Trypanosoma cruzi [1] = assay: Antitrypanosomal activity against Trypanosoma cruzi epimastigotes at 100 ug/ml; type: functional
Trypanosoma cruzi [2] = assay: Antitrypanosomal activity against Trypanosoma cruzi epimastigotes at 10 ug/ml; type: functional
Trypanosoma cruzi [3] = assay: Antitrypanosomal activity against Trypanosoma cruzi epimastigotes at 1 ug/ml; type: functional
J774 [4] = assay: Unspecific cytotoxicity against murine J774 macrophages at 100 ug/ml; type: functional, Mus musculus
J774 [5] = assay: Unspecific cytotoxicity against murine J774 macrophages at 10 ug/ml; type: functional, Mus musculus
J774 [6] = assay: Unspecific cytotoxicity against murine J774 macrophages at 1 ug/ml; type: functional, Mus musculus
Trypanosoma cruzi [7] = assay: Antitrypanosomal activity against Trypanosoma cruzi amastigotes at 100 ug/ml; type: functional
Trypanosoma cruzi [8] = assay: Antitrypanosomal activity against Trypanosoma cruzi amastigotes at 10 ug/ml; type: functional
Trypanosoma cruzi [9] = assay: Antitrypanosomal activity against Trypanosoma cruzi amastigotes at 1 ug/ml; type: functional
Mus musculus = assay: Antitrypanosomal activity against Trypanosoma cruzi infected NMRI mice at 50 mg/kg/day; type: functional

Row | Structure (SMILES) | Activity (Trypanosoma cruzi [1]) [%] | Activity (Trypanosoma cruzi [2]) [%] | Activity (Trypanosoma cruzi [3]) [%] | Activity (J774 [4]) [%] | Activity (J774 [5]) [%] | Activity (J774 [6]) [%] | Activity (Trypanosoma cruzi [7]) [%] | Activity (Trypanosoma cruzi [8]) [%] | Activity (Trypanosoma cruzi [9]) [%] | Activity (Mus musculus) [%]
1 | CN1C(=O)CN(CCCCCCl)c2ccc([N+](=O)[O-])cc21 | 83.3 | 82.2 | 15 | 99.5 | 17.8 | 0 | – | – | – | –
2 | O=C1Nc2cc([N+](=O)[O-])ccc2N2Cc3ccccc3CC12 (stereo not given) | 72.1 | 29.4 | 19.4 | 50.4 | 0 | 0 | – | – | – | –
3 | O=C(CCl)Nc1cc([N+](=O)[O-])ccc1N1CCCCC1 | 84 | 34.8 | 7.1 | 24.9 | 6.3 | 8.1 | – | – | – | –
4 | CN1C(=O)C[N+](C)(C)c2ccc([N+](=O)[O-])cc21.[Cl-] | 67.2 | 9 | 0.9 | 64.8 | 10.5 | 9.8 | – | – | – | –
5 | O=C1Nc2cc([N+](=O)[O-])ccc2N2CCCCC12 (stereo not given) | 77 | 30.9 | 3.9 | 34.2 | 5.6 | 2.4 | – | – | – | –
6 | O=C(CN1CCCCC1)Nc1cc([N+](=O)[O-])ccc1F | 14.3 | 4.4 | 0 | – | – | – | – | – | – | –
7 | O=C(Cn1ccnc1[N+](=O)[O-])NCc1ccccc1 [BENZNIDAZOLE] | – | – | – | 1.4 | 1.6 | 1.9 | 96.6 | 9.2 | 83.2 | –
8 | O=C1Nc2cc([N+](=O)[O-])ccc2N2CCCC12 (stereo not given) | 90.5 | 70.3 | 25.6 | 23.6 | 0 | 0 | 30.2 | 13.3 | – | –
9 | O=C(CN1CCCCC1)Nc1cc([N+](=O)[O-])ccc1Cl | 11 | 1.3 | 21.9 | – | – | – | – | – | – | –
10 | CN1CC(=O)N(C)c2cc([N+](=O)[O-])ccc21 | 72.7 | 21.6 | 22.5 | 0 | 0 | 0 | 85.4 | – | – | 60.7
11 | O=C1CN(CCCCCCCl)c2ccc([N+](=O)[O-])cc2N1 | 90.9 | 72.1 | 23.2 | 97.4 | 32.9 | 16.6 | – | 100 | – | –
12 | CC1CS(=O)(=O)CCN1/N=C/c1ccc([N+](=O)[O-])o1 (stereo not given) [NIFURTIMOX] | 98.7 | 90 | 75.5 | 25.9 | 0.6 | 0 | 100 | 94.4 | 88.1 | 100
